Assay results: article PMC7181660, “A novel specific PERK activator reduces toxicity and extends survival in Huntington's disease models” (Scientific Reports, 2020)

Experiments:
Experiment in all cases: biochemical
Format in all cases: biochemical
panel of 391 kinases [1] = biological target: panel of 391 kinases (Homo sapiens, UniProt Q8WTQ7); settings: GRK7, MK-28 1 µM, ATP 1 µM
panel of 391 kinases [2] = biological target: panel of 391 kinases (Homo sapiens, UniProt P22694); settings: PKAcb, MK-28 1 µM, ATP 1 µM
panel of 391 kinases [3] = biological target: panel of 391 kinases (Homo sapiens, UniProt P68400); settings: CK2a, MK-28 1 µM, ATP 1 µM
panel of 391 kinases [4] = biological target: panel of 391 kinases (Homo sapiens, UniProt P22612); settings: PKAcg, MK-28 1 µM, ATP 1 µM
panel of 391 kinases [5] = biological target: panel of 391 kinases (Homo sapiens, UniProt P04049); settings: RAF1, MK-28 1 µM, ATP 1 µM
panel of 391 kinases [6] = biological target: panel of 391 kinases (Homo sapiens, UniProt P16591); settings: FER, MK-28 1 µM, ATP 1 µM
panel of 391 kinases [7] = biological target: panel of 391 kinases (Homo sapiens, UniProt Q15569); settings: TESK1, MK-28 1 µM, ATP 1 µM
panel of 391 kinases [8] = biological target: panel of 391 kinases (Homo sapiens, UniProt P20794); settings: MAK, MK-28 1 µM, ATP 1 µM
panel of 391 kinases [9] = biological target: panel of 391 kinases (Homo sapiens, UniProt O75116); settings: ROCK2, MK-28 1 µM, ATP 1 µM
panel of 391 kinases [10] = biological target: panel of 391 kinases (Homo sapiens, UniProt Q02779); settings: MLK2/MAP3K10, MK-28 1 µM, ATP 1 µM
panel of 391 kinases [11] = biological target: panel of 391 kinases (Homo sapiens, UniProt Q9NRH2); settings: SNRK, MK-28 1 µM, ATP 1 µM
panel of 391 kinases [12] = biological target: panel of 391 kinases (Homo sapiens, UniProt P23458); settings: JAK1, MK-28 1 µM, ATP 1 µM
panel of 391 kinases [13] = biological target: panel of 391 kinases (Homo sapiens, UniProt P37023); settings: ALK1/ACVRL1, MK-28 1 µM, ATP 1 µM
panel of 391 kinases [14] = biological target: panel of 391 kinases (Homo sapiens, UniProt Q13233); settings: MEKK1, MK-28 1 µM, ATP 1 µM
panel of 391 kinases [15] = biological target: panel of 391 kinases (Homo sapiens, UniProt Q15746); settings: MLCK/MYLK, MK-28 1 µM, ATP 1 µM
panel of 391 kinases [16] = biological target: panel of 391 kinases (Homo sapiens, UniProt Q13153); settings: PAK1, MK-28 1 µM, ATP 1 µM
panel of 391 kinases [17] = biological target: panel of 391 kinases (Homo sapiens, UniProt Q96QT4); settings: kinase TRPM7/CHAK1, compound at 1 µM, single dose in duplicates, 1 µM ATP
panel of 391 kinases [18] = biological target: panel of 391 kinases (Homo sapiens, UniProt P54756); settings: EPHA5, MK-28 1 µM, ATP 1 µM
panel of 391 kinases [19] = biological target: panel of 391 kinases (Homo sapiens, UniProt Q6P5Z2); settings: PKN3/PRK3, MK-28 1 µM, ATP 1 µM
panel of 391 kinases [20] = biological target: panel of 391 kinases (Homo sapiens, UniProt P17252); settings: PKCa, MK-28 1 µM, ATP 1 µM
panel of 391 kinases [21] = biological target: panel of 391 kinases (Homo sapiens, UniProt P07332); settings: FES/FPS, MK-28 1 µM, ATP 1 µM
panel of 391 kinases [22] = biological target: panel of 391 kinases (Homo sapiens, UniProt Q9Y4K4); settings: KHS/MAP4K5, MK-28 1 µM, ATP 1 µM
panel of 391 kinases [23] = biological target: panel of 391 kinases (Homo sapiens, UniProt Q16539); settings: P38a/MAPK14, MK-28 1 µM, ATP 1 µM
panel of 391 kinases [24] = biological target: panel of 391 kinases (Homo sapiens, UniProt O60674); settings: JAK2, MK-28 1 µM, ATP 1 µM
panel of 391 kinases [25] = biological target: panel of 391 kinases (Homo sapiens, UniProt Q8NG66); settings: NEK11, MK-28 1 µM, ATP 1 µM
panel of 391 kinases [26] = biological target: panel of 391 kinases (Homo sapiens, UniProt P53779); settings: JNK3, MK-28 1 µM, ATP 1 µM
[27] = read-out: % Enzyme Activity (relative to DMSO controls)

Structure (SMILES): CN(/N=C\c1ccc(O)c(O)c1)c1nc(-c2ccccc2)cc(-c2ccccc2)n1 [MK-28]
- % Enzyme Activity (relative to DMSO controls) (panel of 391 kinases [1]): 97.74%
- remaining activity at 1 µM (panel of 391 kinases [1]; [27]): 98.5%
- % Enzyme Activity (relative to DMSO controls) (panel of 391 kinases [2]): 95.23%
- remaining activity at 1 µM (panel of 391 kinases [2]; [27]): 99.2%
- % Enzyme Activity (relative to DMSO controls) (panel of 391 kinases [3]): 76.99%
- remaining activity at 1 µM (panel of 391 kinases [3]; [27]): 81.1%
- % Enzyme Activity (relative to DMSO controls) (panel of 391 kinases [4]): 92.94%
- remaining activity at 1 µM (panel of 391 kinases [4]; [27]): 93.5%
- % Enzyme Activity (relative to DMSO controls) (panel of 391 kinases [5]): 93.95%
- remaining activity at 1 µM (panel of 391 kinases [5]; [27]): 94.3%
- % Enzyme Activity (relative to DMSO controls) (panel of 391 kinases [6]): 101.21%
- remaining activity at 1 µM (panel of 391 kinases [6]; [27]): 102%
- % Enzyme Activity (relative to DMSO controls) (panel of 391 kinases [7]): 66.57%
- remaining activity at 1 µM (panel of 391 kinases [7]; [27]): 66.7%
- % Enzyme Activity (relative to DMSO controls) (panel of 391 kinases [8]): 94.70%
- remaining activity at 1 µM (panel of 391 kinases [8]; [27]): 97.8%
- % Enzyme Activity (relative to DMSO controls) (panel of 391 kinases [9]): 90.11%
- remaining activity at 1 µM (panel of 391 kinases [9]; [27]): 90.5%
- % Enzyme Activity (relative to DMSO controls) (panel of 391 kinases [10]): 95.47%
- remaining activity at 1 µM (panel of 391 kinases [10]; [27]): 100%
- % Enzyme Activity (relative to DMSO controls) (panel of 391 kinases [11]): 99.62%
- remaining activity at 1 µM (panel of 391 kinases [11]; [27]): 100%
- % Enzyme Activity (relative to DMSO controls) (panel of 391 kinases [12]): 100.53%
- remaining activity at 1 µM (panel of 391 kinases [12]; [27]): 101%
- % Enzyme Activity (relative to DMSO controls) (panel of 391 kinases [13]): 91.36%
- remaining activity at 1 µM (panel of 391 kinases [13]; [27]): 94.7%
- % Enzyme Activity (relative to DMSO controls) (panel of 391 kinases [14]): 92.45%
- remaining activity at 1 µM (panel of 391 kinases [14]; [27]): 95.1%
- % Enzyme Activity (relative to DMSO controls) (panel of 391 kinases [15]): 91.99%
- remaining activity at 1 µM (panel of 391 kinases [15]; [27]): 93%
- % Enzyme Activity (relative to DMSO controls) (panel of 391 kinases [16]): 100.75%
- remaining activity at 1 µM (panel of 391 kinases [16]; [27]): 102%
- % Enzyme Activity (relative to DMSO controls) (panel of 391 kinases [17]): 102.70%
- remaining activity at 1 µM (panel of 391 kinases [17]; [27]): 104%
- % Enzyme Activity (relative to DMSO controls) (panel of 391 kinases [18]): 98.83%
- remaining activity at 1 µM (panel of 391 kinases [18]; [27]): 103%
- % Enzyme Activity (relative to DMSO controls) (panel of 391 kinases [19]): 98.68%
- remaining activity at 1 µM (panel of 391 kinases [19]; [27]): 101%
- % Enzyme Activity (relative to DMSO controls) (panel of 391 kinases [20]): 89.76%
- remaining activity at 1 µM (panel of 391 kinases [20]; [27]): 92.7%
- % Enzyme Activity (relative to DMSO controls) (panel of 391 kinases [21]): 91.44%
- remaining activity at 1 µM (panel of 391 kinases [21]; [27]): 95.1%
- % Enzyme Activity (relative to DMSO controls) (panel of 391 kinases [22]): 84.30%
- remaining activity at 1 µM (panel of 391 kinases [22]; [27]): 86.9%
- % Enzyme Activity (relative to DMSO controls) (panel of 391 kinases [23]): 98.53%
- remaining activity at 1 µM (panel of 391 kinases [23]; [27]): 100%
- % Enzyme Activity (relative to DMSO controls) (panel of 391 kinases [24]): 91.77%
- remaining activity at 1 µM (panel of 391 kinases [24]; [27]): 93.8%
- % Enzyme Activity (relative to DMSO controls) (panel of 391 kinases [25]): 90.54%
- remaining activity at 1 µM (panel of 391 kinases [25]; [27]): 93.3%
- % Enzyme Activity (relative to DMSO controls) (panel of 391 kinases [26]): 94.93%
- remaining activity at 1 µM (panel of 391 kinases [26]; [27]): 99.6%
